Test results taken from patent publication US20240058336A1 (IMPACT BIOMEDICINES, INC., priority 2020, published 2024).
Where a name gives a salt, the structure may show the parent alone.

What was measured:
[1] = test system: nausea and vomiting; test: Ondansetron prophylaxis in a previous Phase 1 fedratinib study; format: in vivo, human; conditions: prophylaxis before fedratinib
Text: A subsequent oral dose(s) of ondansetron may be given, as necessary, in accordance with the United States Package Insert (USPI).

[2] = test system: JAK2V617F-driven MPNs; conditions: mouse models; cited from earlier work
[3] = test system: patient-derived cell lines expressing JAK2V617F and cells engineered to express WT JAK2 or JAK2V617F; conditions: cited from earlier work
[4] = Tolerability of single fedratinib doses in healthy subjects; format: in vivo, human
[5] = Fedratinib pharmacokinetics in healthy subjects; format: in vivo, human
[6] = test system: CYP3A4, CYP2C19 and flavin-containing monooxygenases (FMOs); test: In vitro evaluations of fedratinib metabolism; format: in vitro ADME
[7] = target: T1, FLT3 kinase (Homo sapiens, UniProt P36888); conditions: cited from earlier work
T1 sequence (P36888 27-993): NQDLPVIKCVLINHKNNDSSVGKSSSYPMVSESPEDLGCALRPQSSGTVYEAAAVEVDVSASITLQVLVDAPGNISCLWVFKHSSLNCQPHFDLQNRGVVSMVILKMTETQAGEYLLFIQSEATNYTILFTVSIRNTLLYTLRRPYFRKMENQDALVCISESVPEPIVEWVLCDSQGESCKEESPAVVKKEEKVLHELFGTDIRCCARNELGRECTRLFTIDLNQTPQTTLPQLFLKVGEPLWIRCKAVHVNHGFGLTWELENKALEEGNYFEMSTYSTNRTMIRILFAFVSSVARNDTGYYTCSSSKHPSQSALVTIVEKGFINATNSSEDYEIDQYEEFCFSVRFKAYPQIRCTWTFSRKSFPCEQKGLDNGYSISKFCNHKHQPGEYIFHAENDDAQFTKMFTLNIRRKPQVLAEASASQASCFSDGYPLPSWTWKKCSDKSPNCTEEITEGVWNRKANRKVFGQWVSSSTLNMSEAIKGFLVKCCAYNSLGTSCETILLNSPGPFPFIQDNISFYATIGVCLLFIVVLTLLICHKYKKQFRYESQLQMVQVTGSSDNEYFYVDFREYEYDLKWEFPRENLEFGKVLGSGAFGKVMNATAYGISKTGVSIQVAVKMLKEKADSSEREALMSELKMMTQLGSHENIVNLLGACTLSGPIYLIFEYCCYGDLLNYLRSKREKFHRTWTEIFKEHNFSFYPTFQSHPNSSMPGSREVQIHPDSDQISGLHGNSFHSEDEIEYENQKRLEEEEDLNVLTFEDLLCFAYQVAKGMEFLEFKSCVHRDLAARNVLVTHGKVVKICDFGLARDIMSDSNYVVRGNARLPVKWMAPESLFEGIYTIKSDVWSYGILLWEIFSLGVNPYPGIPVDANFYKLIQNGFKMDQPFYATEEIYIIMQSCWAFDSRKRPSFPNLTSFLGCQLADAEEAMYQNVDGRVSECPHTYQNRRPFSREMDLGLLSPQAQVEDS

| Structure (SMILES) | nausea and vomiting [1] | STAT phosphorylation [2] | disease-associated symptoms (leukopenia, anemia, splenomegaly, fibrosis) [2] | survival [2] | STAT phosphorylation [3] | apoptosis [3] | cell proliferation [3] | single dose tolerated [4] | fraction of total fedratinib AUC captured ([5]; by 168 hours postdose, healthy subjects) | PK linearity ([5]; clinically relevant dose range, single-dose PK predicts multiple-dose PK) | half-life ([5]; human, in vivo, healthy subjects, read-out: effective half-life (converted)) [h] | metabolizing enzymes [6] | inhibition of FLT3 kinase [7] |
| --- | --- | --- | --- | --- | --- | --- | --- | --- | --- | --- | --- | --- | --- |
| Cc1nccn1CC1CCc2c(c3ccccc3n2C)C1=O (stereo not shown) [Ondansetron] | reduce nausea and vomiting |  |  |  |  |  |  |  |  |  |  |  |  |
| Cc1cnc(Nc2ccc(OCCN3CCCC3)cc2)nc1Nc1cccc(S(=O)(=O)NC(C)(C)C)c1 [fedratinib, N-tert-butyl-3-[(5-methyl-2-{[4-(2-pyrrolidin-1-ylethoxy)phenyl]amino}pyrimidin-4-yl)amino]benzenesulfonamide dihydrochloride monohydrate] |  | blocked phosphorylation of STATS/5 | improved disease-associated symptoms | increased survival | reduced phosphorylation of STATS/STATS | increased apoptosis | inhibited cell proliferation | up to 680 mg | approximately 90% | linear | ~30 | metabolized by multiple CYPs, with the predominant contribution from CYP3A4, and with lesser contributions from CYP2C19 and flavin-containing monooxygenases (FMOs) | inhibits |
